Marks after values point to notes of the source that are not given here.
Tests used:
[1] = test system: α-sarcoglycan (SG)-null C57BL/6 mice; test: Free wheel running test (voluntary wheel running), muscular dystrophy model; type: in vivo; settings: daily in the diet
Description: (§1) Muscular Dystrophy Model (α-Sarcoglycan-Deficient Mice)
(§2) • 2-acetyloxy benzoic acid 3-(nitrooxymethyl)benzoate of formula (Ib); • pravastatin 4-(nitrooxy)butyl ester which of formula (XXXVb); • 2-fluoro-alfa-methyl-4[1,1′-biphenyl]4-acetic acid 4-nitrooxybutyl ester of formula (IIIb); • prednisolone as reference corticosteroid drug. […] At indicated time-points (ranging from 20 to 80 days) skeletal muscle function was tested by the free wheel test. 24 hours later animals were sacrificed, tissue isolated and histological characteristics analysed. Infiltrates were assessed after staining with the Azan Mallory technique; Necrotic fibres were measured in hematoxilin-stained sections; creatin kinase was measured using a commercially available kit on blood samples obtained 24 hours prior to the wheel test. […] Free Wheel Running: Voluntary wheel running was used as the exercise paradigm to avoid any physiological changes that may occur due to the stress of forced treadmill running. Mice were housed singly for a 24 hour period in a polycarbonate running wheel equipped with a magnetic counter, the output of which was sent to a speedometer, allowing quantification of the number of revolutions per day. Creatine Kinase Activity Measurements: quantitative and kinetic determination of creatine kinase activity in serum of control and drug treated-animals was measured using creatine kinase reagent (Sigma), according to the manufacturer's instructions. Blood was collected from tail of 2-7 months-old mice and serum obtained after centrifugation at 13.000 rpm for 10 minutes was stored at −80° C. before measurements. Histology: Diaphragm and tibialis anterior of untreated and drug-treated mice were isolated and included in Killik frozen section medium, quickly frozen and cut into 8-μm thick sections with the muscle fibres oriented transversely using a cryostat. Sections were stained with either Hematoxylin & Eosin or Azan Mallory, to evaluate the number of inflammatory infiltrates and necrotic fibres ([…] for tissue).

[2] = test system: α-sarcoglycan (SG)-null C57BL/6 mice; test: Histology of diaphragm and tibialis anterior (inflammatory infiltrates, necrotic fibres), muscular dystrophy model; type: in vivo; settings: for Overall effect on histological, functional and biochemical alterations (in words): α-SG-null mice, 20 to 80 days, summary of tables 1 and 2
Description: as §1, §2

[3] = test system: α-sarcoglycan (SG)-null C57BL/6 mice; test: Creatine kinase activity measurements in serum, muscular dystrophy model; type: in vivo; settings: daily in the diet, Ib 100, XXXVb 12, IIIb 30, prednisolone 3 mg/kg
Description: as §1, §2

α-SG-null mice = test: In vivo functional test: resistance to fatigue (exhaustion) by treadmill; settings: for Extent of the benefit (%) on exhaustion time, treated vs untreated mice: in the diet
Description: The effectiveness of naproxcinod, isosorbide dinitrate (ISD) alone and in combination with ibuprofen, molsidomine and prednisolone were evaluated using a test of functional recovery in a mouse model of muscular dystrophy (α-SG-null mice). The experiments to assess the functional recovery in α-SG-null mice were performed according to the following experimental protocol. All experiments and functional evaluations were performed by the same operator in the same laboratory.
α-SG-null mice were housed in a pathogen-free facility, treated in accordance with the European Community Guidelines and with the approval of the Institutional Ethical Committee. Mice were given the following treatments: 3 mg/kg of molsidomine, 30 mg/kg of naproxcinod, 30 mg/kg of ISD alone and in combination with 50 mg/kg of ibuprofen, or 2 mg/kg of prednisolone incorporated in the diet. Control groups received the same diet without any drugs. Standard diet and diets containing the drugs were prepared based on the daily food intake of 3 g. Mice were treated starting at 1 month of age.
Analyses were carried out using a six-lane motorized treadmill (Exeter 3/6 treadmill, Columbus Instruments, OH, USA) supplied with shocker plates. The initial trials were performed at low intensity and for a short duration of time to get mice accustomed to the exercise; the treadmill was then run without inclination at 5 m/min for 5 min, after which the speed was increased 1 m/min every 3 min until a speed of 10 m/min was reached. The test was stopped when the mouse remained on the shocker for 20 sec without attempting to reengage the treadmill.
The extent of benefit (%) is expressed as the percent of the improvement of treated mice (diet containing the drug) compared to untreated mice (standard diet) on the exhaustion time.

[4] = 20 days of treatment, Ib 100, XXXVb 12, IIIb 30, prednisolone 3 mg/kg
[5] = 40 days of treatment, Ib 100, XXXVb 12 mg/kg
[6] = 60 days of treatment, Ib 100, XXXVb 12 mg/kg
[7] = 80 days of treatment, daily in the diet, Ib 100 mg/kg, XXXVb 12 mg/kg, IIIb 30 mg/kg, prednisolone 3 mg/kg
[8] = 80 days of treatment, daily in the diet, Ib 100 mg/kg, XXXVb 12 mg/kg, IIIb 30 mg/kg, prednisolone 3 mg/kg, Azan Mallory staining

Compound | Free wheel test [1, 4] [km/24 h] | Free wheel test [1, 5] [km/24 h] | Free wheel test [1, 6] [km/24 h] | Free wheel test ([1]; 80 days of treatment, XXXVb 12 mg/kg) [km/24 h] | N° of necrotic Fibres/section [2, 7] | N° of inflammatory Infiltrates/section [2, 8] | Overall effect on histological, functional and biochemical alterations (in words) ([2]; daily in the diet) | CK plasma level ([3]; 20 days of treatment) | CK plasma level ([3]; 40 days of treatment) [U/ml] | CK plasma level ([3]; 60 days of treatment) [U/ml] | CK plasma level ([3]; 80 days of treatment) | N° of inflammatory Infiltrates/section ([2]; mouse, in vivo) | N° of necrotic Fibres/section ([2]; mouse, in vivo) | Extent of the benefit (%) on exhaustion time, treated vs untreated mice (α-SG-null mice; 6 months of treatment, prednisolone 2 mg/kg) [%] | Extent of the benefit (%) on exhaustion time, treated vs untreated mice (α-SG-null mice; 12 months of treatment, prednisolone 2 mg/kg) [%] | Extent of the benefit (%) on exhaustion time, treated vs untreated mice (α-SG-null mice; 8 months of treatment, molsidomine 3 mg/kg, ISD 30 mg/kg, ibuprofen 50 mg/kg) [%] | Extent of the benefit (%) on exhaustion time, treated vs untreated mice (α-SG-null mice; 4 months of treatment, naproxcinod 30 mg/kg, ISD 30 mg/kg, ibuprofen 50 mg/kg) [%] | Amelioration of muscle function (in words) (α-SG-null mice; compared to molsidomine, ISD alone, ISD and ibuprofen, or prednisolone)
CC[C@H](C)C(=O)O[C@H]1C[C@H](O)C=C2C=C[C@H](C)[C@H](CCC(O)C[C@H](O)CC(=O)OCCCCO[N+](=O)[O-])[C@H]21 (relative stereo) [(XXXVb), [1S-[1α(βS*,δS*),2α,6α,8β-(R*),8aα]]-1,2,6,7,8,8a-hexahydro-β,δ,6-trihydroxy-2-methyl-8-(2-methyl-1-oxobutoxy)-1-naphthaleneheptanoic acid 4-(nitrooxy)butyl ester] | 0.55 ± 0.03 | 0.58 ± 0.01 | 0.54 ± 0.03 | 0.65 ± 0.05 | 35 ± 2.1 | 54.2 ± 8.05 | significantly effective in reducing the histological, functional and biochemical alterations | 440.6 ± 33**^ U/ml | 488.2 ± 96.5 | 627.4 ± 69.3 | 614.8 ± 37**^ U/ml | – | – | – | – | – | – | –
CC(C(=O)OCCCCO[N+](=O)[O-])c1ccc(-c2ccccc2)c(F)c1 (centres unmarked) [(IIIb), 2-fluoro-alfa-methyl-4[1,1′-biphenyl]4-acetic acid 4-nitrooxybutyl ester] | 0.95 ± 0.1 | – | – | – | – | – | significantly effective in reducing the histological, functional and biochemical alterations | 662.6 ± 41 U/ml | 824.0 ± 90.5 | 648.2 ± 25.2 | 482.3 ± 51.2 U/ml | 84.2 ± 22.5 | 48.4 ± 2.3 | – | – | – | – | –
CC(=O)Oc1ccccc1C(=O)Oc1cccc(CO[N+](=O)[O-])c1 [(Ib), 2-(acetyloxy)benzoic acid 3-(nitrooxymethyl)phenyl ester] | 0.65 ± 0.07 | 0.42 ± 0.08 | 0.31 ± 0.1 | – | 124.1 ± 33 | 91.3 ± 34.5 | significantly effective in reducing the histological, functional and biochemical alterations | 665.6 ± 51 U/ml | 944.0 ± 95.5 | 444.2 ± 20.2 | 494.6 ± 56.1 U/ml | – | – | – | – | – | – | –
C[C@]12C=CC(=O)C=C1CC[C@@H]1[C@@H]2[C@@H](O)C[C@@]2(C)[C@H]1CC[C@]2(O)C(=O)CO [Prednisolone, prednisolone, reference compound] | 0.55 ± 0.1 | – | – | – | 197.1 ± 23 | 59.4 ± 7.00 | – | 440.6 ± 33**^ U/ml | 488.2 ± 96.5 | 711.3 ± 69.3 | 717.6 ± 31.1 U/ml | – | – | 117 | 100 | – | – | –
CCOC(=O)[N-]c1cn(N2CCOCC2)n[o+]1 [molsidomine] | – | – | – | – | – | – | – | – | – | – | – | – | – | – | – | 63 | – | –
COc1ccc2cc([C@H](C)C(=O)OCCCCO[N+](=O)[O-])ccc2c1 [naproxcinod] | – | – | – | – | – | – | – | – | – | – | – | – | – | – | – | – | 150 | superior amelioration of the muscle function
